This note sets out measurements from patent US10344060B2 (priority 2013, dated 2019).

Assay [1] addresses T1, hNav1.7 (Homo sapiens, UniProt Q15858). Nature of the assay: cell-based. The settings on record: ratio of IonWorks Quattro IC50 values. Background: In patch-clamp work, channel activity is measured electrically.
The target of assay [2] is T1, hNav1.7. Nature of the assay: cell-based. In kind it is cell-based. The settings on record: ratio of PX tonic IC50 values; Table 11.

Values joined by “and” are separate entries in the source; they are usually repeats but may differ in a detail not shown here. Equal entries are not always repeated. A value given as a limit tells only on which side of the number the result lay.

T1 sequence (Q15858 whole entry): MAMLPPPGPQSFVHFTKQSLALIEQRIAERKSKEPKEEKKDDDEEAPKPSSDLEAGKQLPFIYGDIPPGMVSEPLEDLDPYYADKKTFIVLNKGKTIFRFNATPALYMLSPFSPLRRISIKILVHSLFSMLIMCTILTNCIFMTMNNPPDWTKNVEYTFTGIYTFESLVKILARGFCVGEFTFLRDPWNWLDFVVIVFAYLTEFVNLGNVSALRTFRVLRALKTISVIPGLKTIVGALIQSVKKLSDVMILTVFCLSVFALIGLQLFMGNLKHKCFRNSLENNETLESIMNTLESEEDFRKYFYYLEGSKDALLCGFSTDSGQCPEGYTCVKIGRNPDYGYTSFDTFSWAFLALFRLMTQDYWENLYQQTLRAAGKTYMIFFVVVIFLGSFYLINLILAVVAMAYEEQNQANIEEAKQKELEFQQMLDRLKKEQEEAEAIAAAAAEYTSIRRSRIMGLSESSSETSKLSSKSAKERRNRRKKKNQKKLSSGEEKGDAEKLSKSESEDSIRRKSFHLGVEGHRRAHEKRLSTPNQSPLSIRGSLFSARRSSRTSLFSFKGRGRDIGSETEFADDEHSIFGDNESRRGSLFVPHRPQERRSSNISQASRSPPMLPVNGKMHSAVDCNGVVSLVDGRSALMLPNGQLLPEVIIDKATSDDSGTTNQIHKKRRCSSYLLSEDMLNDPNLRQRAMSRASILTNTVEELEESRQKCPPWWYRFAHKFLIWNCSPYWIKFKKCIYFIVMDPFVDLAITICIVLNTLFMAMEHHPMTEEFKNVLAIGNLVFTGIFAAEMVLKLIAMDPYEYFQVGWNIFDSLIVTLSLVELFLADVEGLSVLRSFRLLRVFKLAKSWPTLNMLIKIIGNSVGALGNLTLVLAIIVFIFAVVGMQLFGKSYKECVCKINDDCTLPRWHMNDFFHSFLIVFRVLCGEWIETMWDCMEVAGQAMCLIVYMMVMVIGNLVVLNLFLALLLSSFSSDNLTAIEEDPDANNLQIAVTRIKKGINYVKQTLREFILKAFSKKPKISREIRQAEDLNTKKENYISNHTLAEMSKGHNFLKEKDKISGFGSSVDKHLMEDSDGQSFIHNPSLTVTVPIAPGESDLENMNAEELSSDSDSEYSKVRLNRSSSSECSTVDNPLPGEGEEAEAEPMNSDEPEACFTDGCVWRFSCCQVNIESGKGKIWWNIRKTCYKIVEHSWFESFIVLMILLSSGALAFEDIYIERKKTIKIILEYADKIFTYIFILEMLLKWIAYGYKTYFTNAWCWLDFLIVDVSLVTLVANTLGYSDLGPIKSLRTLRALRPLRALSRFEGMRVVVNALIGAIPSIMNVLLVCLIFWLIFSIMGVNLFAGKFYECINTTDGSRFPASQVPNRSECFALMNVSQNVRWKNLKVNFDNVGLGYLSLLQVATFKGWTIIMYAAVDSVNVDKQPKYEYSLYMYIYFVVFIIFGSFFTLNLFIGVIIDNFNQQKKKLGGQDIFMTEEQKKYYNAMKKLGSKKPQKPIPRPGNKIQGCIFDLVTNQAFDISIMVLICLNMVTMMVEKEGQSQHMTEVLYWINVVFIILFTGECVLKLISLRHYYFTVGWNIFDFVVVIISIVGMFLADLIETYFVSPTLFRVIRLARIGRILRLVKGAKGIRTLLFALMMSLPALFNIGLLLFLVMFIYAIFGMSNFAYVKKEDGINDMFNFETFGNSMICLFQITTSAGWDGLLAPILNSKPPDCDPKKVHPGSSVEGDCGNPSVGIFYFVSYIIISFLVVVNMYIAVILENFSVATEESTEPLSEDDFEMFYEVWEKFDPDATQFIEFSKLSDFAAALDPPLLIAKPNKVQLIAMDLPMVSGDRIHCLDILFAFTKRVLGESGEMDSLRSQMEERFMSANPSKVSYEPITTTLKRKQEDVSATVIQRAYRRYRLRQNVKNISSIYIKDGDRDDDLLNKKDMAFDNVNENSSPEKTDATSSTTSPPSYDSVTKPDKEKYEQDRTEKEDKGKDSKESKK

In the case of `CC[C@H](C)[C@H](NC(=O)[C@H](CCCNC(N)=O)NC(=O)[C@H](CCCCN)NC(=O)[C@H](CCCNC(=N)N)NC(=O)[C@@H]1CSSC[C@@H]2NC(=O)[C@H](C)NC(=O)[C@H](CCCNC(=N)N)NC(=O)[C@H](CCCCN)NC(=O)[C@H](CO)NC(=O)[C@H](CC(=O)O)NC(=O)[C@@H]3CSSC[C@H](NC(=O)[C@H](CCC(=O)O)NC(=O)[C@H](CC(C)C)NC(=O)CNC(=O)[C@H](CCC(=O)O)NC(=O)[C@H](CSSC[C@H](NC(=O)[C@@H](N)Cc4ccc(O)cc4)C(=O)N[C@@H](CCC(N)=O)C(=O)N[C@@H](CCCCN)C(=O)N[C@@H](Cc4c[nH]c5ccccc45)C(=O)N[C@@H](CCSC)C(=O)N[C@@H](Cc4c[nH]c5ccccc45)C(=O)N[C@@H]([C@@H](C)O)C(=O)N3)NC2=O)C(=O)N[C@@H](CCCCN)C(=O)N[C@@H](CC(C)C)C(=O)N[C@@H](Cc2c[nH]c3ccccc23)C(=O)N1)C(N)=O` [compound 135], on hNav1.7 [1] (Nav1.4 over Nav1.7), the Nav1.4/Nav1.7 came out at 46. Also, on hNav1.7 [2], the Nav1.4/Nav1.7 worked out at 1075 and the Nav1.5/Nav1.7 is reported as above 1786.

With `CC[C@H](C)[C@H](NC(=O)[C@H](Cc1ccc(O)cc1)NC(=O)[C@H](CCCCN)NC(=O)[C@H](CCCNC(=N)N)NC(=O)[C@@H]1CSSC[C@@H]2NC(=O)[C@H](C)NC(=O)[C@H](CCCNC(=N)N)NC(=O)[C@H](CCCCN)NC(=O)[C@H](CO)NC(=O)[C@H](CC(=O)O)NC(=O)[C@@H]3CSSC[C@H](NC(=O)[C@H](CCC(=O)O)NC(=O)[C@H](CC(C)C)NC(=O)CNC(=O)[C@H](CCC(=O)O)NC(=O)[C@H](CSSC[C@H](NC(=O)[C@@H](N)Cc4ccc(O)cc4)C(=O)N[C@@H](CCC(N)=O)C(=O)N[C@@H](CCCCN)C(=O)N[C@@H](Cc4c[nH]c5ccccc45)C(=O)N[C@@H](CCSC)C(=O)N[C@@H](Cc4c[nH]c5ccccc45)C(=O)N[C@@H]([C@@H](C)O)C(=O)N3)NC2=O)C(=O)N[C@@H](CCCCN)C(=O)N[C@@H](CC(C)C)C(=O)N[C@@H](Cc2c[nH]c3ccccc23)C(=O)N1)C(N)=O` [compound 137], the Nav1.4/Nav1.7 was 41 on hNav1.7 [1] (Nav1.4 over Nav1.7) and 1411 on hNav1.7 [2]. The Nav1.5/Nav1.7 on hNav1.7 [2] worked out at 12667.

`CC[C@H](C)[C@H](NC(=O)[C@@H](NC(=O)[C@H](CCCCN)NC(=O)[C@H](CCCNC(=N)N)NC(=O)[C@@H]1CSSC[C@@H]2NC(=O)[C@H](C)NC(=O)[C@H](CCCNC(=N)N)NC(=O)[C@H](CCCCN)NC(=O)[C@H](CO)NC(=O)[C@H](CC(=O)O)NC(=O)[C@@H]3CSSC[C@H](NC(=O)[C@H](CCC(=O)O)NC(=O)[C@H](CC(C)C)NC(=O)CNC(=O)[C@H](CCC(=O)O)NC(=O)[C@H](CSSC[C@H](NC(=O)[C@@H](N)Cc4ccc(O)cc4)C(=O)N[C@@H](CCC(N)=O)C(=O)N[C@@H](CCCCN)C(=O)N[C@@H](Cc4c[nH]c5ccccc45)C(=O)N[C@@H](CCSC)C(=O)N[C@@H](Cc4c[nH]c5ccccc45)C(=O)N[C@@H]([C@@H](C)O)C(=O)N3)NC2=O)C(=O)N[C@@H](CCCCN)C(=O)N[C@@H](CC(C)C)C(=O)N[C@@H](Cc2c[nH]c3ccccc23)C(=O)N1)C(C)C)C(N)=O` [compound 133]: the Nav1.4/Nav1.7 is given as 51 on hNav1.7 [1] (Nav1.4 over Nav1.7) and 320 on hNav1.7 [2]. Further, on hNav1.7 [2], the Nav1.5/Nav1.7 is given as 1341.

With `CC[C@H](C)[C@H](NC(=O)[C@@H](NC(=O)[C@H](CCCCN)NC(=O)[C@H](CCCNC(=N)N)NC(=O)[C@@H]1CSSC[C@@H]2NC(=O)[C@H](C)NC(=O)[C@H](CCCNC(=N)N)NC(=O)[C@H](CCCCN)NC(=O)[C@H](CO)NC(=O)[C@H](CC(=O)O)NC(=O)[C@@H]3CSSC[C@H](NC(=O)[C@H](Cc4ccc(O)cc4)NC(=O)[C@H](CC(C)C)NC(=O)CNC(=O)[C@H](CCC(=O)O)NC(=O)[C@H](CSSC[C@H](NC(=O)[C@@H](N)Cc4ccc(O)cc4)C(=O)N[C@@H](CCC(N)=O)C(=O)N[C@@H](CCCCN)C(=O)N[C@@H](Cc4c[nH]c5ccccc45)C(=O)N[C@@H](CCSC)C(=O)N[C@@H](Cc4c[nH]c5ccccc45)C(=O)N[C@@H]([C@@H](C)O)C(=O)N3)NC2=O)C(=O)N[C@@H](CCCCN)C(=O)N[C@@H](CC(C)C)C(=O)N[C@@H](Cc2c[nH]c3ccccc23)C(=O)N1)[C@@H](C)CC)C(N)=O` [compound 124], the Nav1.4/Nav1.7 at hNav1.7 [1] (Nav1.4 over Nav1.7) is recorded as 43. In addition, on hNav1.7 [2], the Nav1.4/Nav1.7 was found to be 266 and the Nav1.5/Nav1.7 is above 1695.

Turning to `CC[C@H](C)[C@H](NC(=O)[C@@H](NC(=O)[C@H](CCCCN)NC(=O)[C@H](CCCNC(=N)N)NC(=O)[C@@H]1CSSC[C@@H]2NC(=O)[C@H](C)NC(=O)[C@H](CCCNC(=N)N)NC(=O)[C@H](CCCCN)NC(=O)[C@H](CO)NC(=O)[C@H](CC(=O)O)NC(=O)[C@@H]3CSSC[C@H](NC(=O)[C@H](CC(=O)O)NC(=O)[C@H](CC(C)C)NC(=O)CNC(=O)[C@H](CCC(=O)O)NC(=O)[C@H](CSSC[C@H](NC(=O)[C@@H](N)Cc4ccc(O)cc4)C(=O)N[C@@H](CCC(N)=O)C(=O)N[C@@H](CCCCN)C(=O)N[C@@H](Cc4c[nH]c5ccccc45)C(=O)N[C@@H](CCSC)C(=O)N[C@@H](Cc4c[nH]c5ccccc45)C(=O)N[C@@H]([C@@H](C)O)C(=O)N3)NC2=O)C(=O)N[C@@H](CCCCN)C(=O)N[C@@H](CC(C)C)C(=O)N[C@@H](Cc2c[nH]c3ccccc23)C(=O)N1)[C@@H](C)CC)C(N)=O` [compound 115], the Nav1.4/Nav1.7 at hNav1.7 [1] (Nav1.4 over Nav1.7) was 53. Also, on hNav1.7 [2], the Nav1.4/Nav1.7 worked out at 10 and the Nav1.5/Nav1.7 came to 4.

Take `CCC[C@H](NC(=O)[C@H](CCCCN)NC(=O)[C@H](CCCNC(=N)N)NC(=O)[C@@H]1CSSC[C@@H]2NC(=O)[C@H](C)NC(=O)[C@H](CCCNC(=N)N)NC(=O)[C@H](CCCCN)NC(=O)[C@H](CO)NC(=O)[C@H](CC(=O)O)NC(=O)[C@@H]3CSSC[C@H](NC(=O)[C@H](CCC(=O)O)NC(=O)[C@H](CC(C)C)NC(=O)CNC(=O)[C@H](CCC(=O)O)NC(=O)[C@H](CSSC[C@H](NC(=O)[C@@H](N)Cc4ccc(O)cc4)C(=O)N[C@@H](CCC(N)=O)C(=O)N[C@@H](CCCCN)C(=O)N[C@@H](Cc4c[nH]c5ccccc45)C(=O)N[C@@H](CCSC)C(=O)N[C@@H](Cc4c[nH]c5ccccc45)C(=O)N[C@@H]([C@@H](C)O)C(=O)N3)NC2=O)C(=O)N[C@@H](CCCCN)C(=O)N[C@@H](CC(C)C)C(=O)N[C@@H](Cc2c[nH]c3ccccc23)C(=O)N1)C(=O)N[C@H](C(N)=O)[C@@H](C)CC` [compound 136]: the Nav1.4/Nav1.7 on hNav1.7 [1] (Nav1.4 over Nav1.7) is 66 and 34. At hNav1.7 [2], the Nav1.4/Nav1.7 is on record as 405 and the Nav1.5/Nav1.7 is 611.

Regarding `CC[C@H](C)[C@H](NC(=O)[C@@H](NC(=O)[C@H](CCCCN)NC(=O)[C@H](CCCNC(=N)N)NC(=O)[C@@H]1CSSC[C@@H]2NC(=O)[C@H](C)NC(=O)[C@H](CCCNC(=N)N)NC(=O)[C@H](CCCCN)NC(=O)[C@H](CO)NC(=O)[C@H](CC(=O)O)NC(=O)[C@@H]3CSSC[C@H](NC(=O)CNC(=O)[C@H](CC(C)C)NC(=O)CNC(=O)[C@H](CCC(=O)O)NC(=O)[C@H](CSSC[C@H](NC(=O)[C@@H](N)Cc4ccc(O)cc4)C(=O)N[C@@H](CCC(N)=O)C(=O)N[C@@H](CCCCN)C(=O)N[C@@H](Cc4c[nH]c5ccccc45)C(=O)N[C@@H](CCSC)C(=O)N[C@@H](Cc4c[nH]c5ccccc45)C(=O)N[C@@H]([C@@H](C)O)C(=O)N3)NC2=O)C(=O)N[C@@H](CCCCN)C(=O)N[C@@H](CC(C)C)C(=O)N[C@@H](Cc2c[nH]c3ccccc23)C(=O)N1)[C@@H](C)CC)C(N)=O` [compound 121], the Nav1.4/Nav1.7 on hNav1.7 [1] (Nav1.4 over Nav1.7) was 29. Besides, on hNav1.7 [2], the Nav1.4/Nav1.7 is on record as 25 and the Nav1.5/Nav1.7 is listed as 1808.

In the case of `CC[C@H](C)[C@H](NC(=O)[C@@H](NC(=O)[C@H](CCCCN)NC(=O)[C@H](CCCNC(=N)N)NC(=O)[C@@H]1CSSC[C@@H]2NC(=O)[C@H](C)NC(=O)[C@H](CCCNC(=N)N)NC(=O)[C@H](CCCCN)NC(=O)[C@H](CO)NC(=O)[C@H](CC(=O)O)NC(=O)[C@@H]3CSSC[C@H](NC(=O)[C@H]([C@@H](C)CC)NC(=O)[C@H](CC(C)C)NC(=O)CNC(=O)[C@H](CCC(=O)O)NC(=O)[C@H](CSSC[C@H](NC(=O)[C@@H](N)Cc4ccc(O)cc4)C(=O)N[C@@H](CCC(N)=O)C(=O)N[C@@H](CCCCN)C(=O)N[C@@H](Cc4c[nH]c5ccccc45)C(=O)N[C@@H](CCSC)C(=O)N[C@@H](Cc4c[nH]c5ccccc45)C(=O)N[C@@H]([C@@H](C)O)C(=O)N3)NC2=O)C(=O)N[C@@H](CCCCN)C(=O)N[C@@H](CC(C)C)C(=O)N[C@@H](Cc2c[nH]c3ccccc23)C(=O)N1)[C@@H](C)CC)C(N)=O` [compound 118], at hNav1.7 [1] (Nav1.4 over Nav1.7), the Nav1.4/Nav1.7 stood at 15.

Take `CSCC[C@@H]1NC(=O)[C@H](Cc2c[nH]c3ccccc23)NC(=O)[C@H](CCCCN)NC(=O)[C@H](CCC(N)=O)NC(=O)[C@@H](NC(=O)[C@@H](N)Cc2ccc(O)cc2)CSSC[C@@H]2NC(=O)[C@@H]3CSSC[C@@H](C(=O)N[C@@H](CCCNC(=N)N)C(=O)N[C@@H](CCCCN)C(=O)N[C@@H](Cc4ccc(O)cc4)C(=O)N[C@@H](Cc4cccc5ccccc45)C(N)=O)NC(=O)[C@H](Cc4c[nH]c5ccccc45)NC(=O)[C@H](CC(C)C)NC(=O)[C@H](CCCCN)NC(=O)[C@H](CSSC[C@H](NC(=O)[C@H]([C@@H](C)O)NC(=O)[C@H](Cc4c[nH]c5ccccc45)NC1=O)C(=O)N[C@@H](CC(=O)O)C(=O)N[C@@H](CO)C(=O)N[C@@H](CCCCN)C(=O)N[C@@H](CCCNC(=N)N)C(=O)N[C@@H](C)C(=O)N3)NC(=O)[C@H](CCC(=O)O)NC(=O)[C@H](CC(C)C)NC(=O)CNC(=O)[C@H](CCC(=O)O)NC2=O` [compound 232]: on hNav1.7 [1] (Table 8), the Nav1.4/Nav1.7 is 91. On hNav1.7 [2], the Nav1.4/Nav1.7 was determined as 372 and the Nav1.5/Nav1.7 is given as 480.

Consider `CC[C@H](C)[C@H](NC(=O)[C@H](CCCCN)NC(=O)[C@H](CCCNC(=N)N)NC(=O)[C@@H]1CSSC[C@@H]2NC(=O)[C@H](C)NC(=O)[C@H](CCCNC(=N)N)NC(=O)[C@H](CCCCN)NC(=O)[C@H](CO)NC(=O)[C@H](CC(=O)O)NC(=O)[C@@H]3CSSC[C@H](NC(=O)[C@H](CCC(=O)O)NC(=O)[C@H](CC(C)C)NC(=O)CNC(=O)[C@H](CCC(=O)O)NC(=O)[C@H](CSSC[C@H](NC(=O)[C@@H](N)Cc4ccc(O)cc4)C(=O)N[C@@H](CCC(N)=O)C(=O)N[C@@H](CCCCN)C(=O)N[C@@H](Cc4c[nH]c5ccccc45)C(=O)N[C@@H](CCSC)C(=O)N[C@@H](Cc4c[nH]c5ccccc45)C(=O)N[C@@H]([C@@H](C)O)C(=O)N3)NC2=O)C(=O)N[C@@H](CCCCN)C(=O)N[C@@H](CC(C)C)C(=O)N[C@@H](Cc2c[nH]c3ccccc23)C(=O)N1)C(=O)N[C@H](C(=O)N[C@@H](Cc1c[nH]c2ccccc12)C(N)=O)[C@@H](C)CC` [compound 113], for which the Nav1.4/Nav1.7 at hNav1.7 [1] (Nav1.4 over Nav1.7) was determined as 30.
